In one series the test system is BXPC-3 cells. Put plainly: BXPC-3 3D cell proliferation assay (methylcellulose, CTG, 7 days). In kind it is cell-based. Conditions: Homo sapiens, 168 h, drug treatment for 7 days. As to the method: 1 g of methylcellulose was weighed and placed into a glass ware and autoclaved. After cooling, 100 mL of the corresponding culture medium was added, the mixture was mixed vigorously, and stirred on a 4°C magnetic stirrer; the mixture was completely dissolved after 48 h and stored at 4°C.
The cells were resuscitated with the corresponding culture medium, and were maintained to grow to the logarithmic growth phase. The cell suspension was collected and centrifuged at 1000 rpm for 5 min. After centrifugation was completed, the supernatant was removed and the cells were re-suspended with an appropriate amount of culture medium. […]
After adding 10 µL of culture medium containing the vehicle to each well, the CTG plate was read. […] The cell plate was placed at room temperature for 10 min to stabilize the luminescent signal, and the luminescent value was read using EnVision. […]
The CTG reagent was thawed and the cell plate was equilibrated to room temperature for 30 min. […] The cell plate was placed at room temperature for 10 min to stabilize the luminescent signal, and the luminescent value was read using EnVision.
Cell viability was calculated using the following formula: (Vsample- VBlank) /(Vvehicle control- VBlank) ×100%. […] The S-shaped dose-survival curve was plotted and IC50 calculated by GraphPad Prism software using non-linear regression model.

Series [1] is described as follows: Caco-2 cell permeability test. In kind it is in vitro ADME. Conditions: human, Caco-2, 10 µM compound; for Papp A→B at 120 min, 10 µM / Papp B→A at 120 min, 10 µM / efflux ratio at 120 min, 10 µM: pH 7.4; for efflux ratio at 120 min, 10 µM: read-out: Efflux rate. As for the experimental part: • 1) Cell culture: The resuscitated Caco-2 cells were cultured in DMEM culture solution containing 10% FBS, 1% Penicillin-Streptomycin Liquid (100X) and 1% NEAA in an incubator at 37 °C with 5% CO2. The culture medium was replaced every 2-3 days and subculture was carried out when the cell confluence reached about 80%. • 2) Preparation of transport buffer: Transport buffer (pH 7.4) was prepared by adding 5 mL of 1M HEPES to 500 mL of HBSS (with or without BSA) to a final concentration of 10 mM HEPES (with or without BSA). • 3) Before the start of the transport experiment (day 14-28), the culture medium was taken out from the cell culture plate, the plate was washed twice with preheated HBSS buffer (10 mM HEPES, pH 7.4), and 100 µL of HBSS buffer was added into each well. After incubation at 37°C for 30 min, the TEER values were measured by a cell resistance meter (Millicell-ERS2) to confirm the integrity and compactness of the monolayer cells. • 4) The HBSS buffer was discarded, the upper plate containing the cell monolayer membrane was transferred to the corresponding receiving plate, the test compound solution or buffer was added to the top (A side) and the basal side (B side), respectively, the cell plate was placed in the corresponding 96-well receiving plate, and grouping was carried out according to Table 6. The prepared positive control drug, test compound or HBSS (with or without BSA) buffer were added to the A side or B side of the Transwell cell plate filter membrane, and the cell plate was incubated at 37°C. Table 6. Compound grouping scheme
• 1) After incubation for 5 min, a sample was taken from the A and B administration sides, 8 µL each side, and added into 72 µL of transport buffer (diluted 10 times) to serve as T0 of the initial administration solution. • 2) After incubation for 120 min, the samples from both ends of the Transwell cell plate filter membrane were collected, and 80 µL of sample solution was taken from the receiving side to serve as the sample at the receiving side after transport, and 8 µL of sample was taken from the administration side and added into 72 µL of transport buffer to serve as the sample at the administration side after transport. • 3) After collecting the samples from both sides, the plate was gently tapped to discard the remaining solution in the cell plate, the cell plate was rinsed with the transport buffer, 100 µL of acetonitrile solution containing internal standard working solution was added to each well to lyse the cells, the system was pipetted up and down to well mix it, and then 80 µL of cell lysate from each well was measured by pipetting to serve as the sample after cell lysis. • 4) After collecting all samples in the transport system (T0 sample, receiving side sample, and donor side sample), 160 µL of IS/ACN solution was added to each well, 80 µL of IS/ACN solution was added to the collected lysate sample, and then the sample was sealed. • 5) The sample plate was shaken for 10 min, and stored at -20°C before LC-MS/MS analysis. • 6) A standard curve was plotted, and then 8 µL of standard curve solution was taken and mixed with 72 µL of transport buffer and 160 µL of IS/ACN to serve as the standard curve sample. • 7) All the above samples were centrifuged at 6000 RPM for 10 min, 100 µL of supernatant was taken, 100 µL of H2O was added, and the mixture was fully mixed, and analyzed by LC-MS/MS.
(In general: Passage across Caco-2 layers is used to estimate intestinal permeability.)

The subject of series [2] is NUGC-3 human gastric cancer subcutaneous xenograft. Put plainly: Efficacy in NUGC-3 human gastric cancer subcutaneous xenograft model. It counts as in vivo, BALB/c Nude mouse. The note with it: PO, 19 days. As to the method:
NUGC-3 cells were cultured in RPMI-1640 medium containing 10% FBS. NUGC-3 cells in the exponential growth phase were collected, the total amount of cells required was calculated, the cells were re-suspended in PBS to a suitable concentration and then an equal volume of Matrigel was added for subcutaneous tumor seeding in BALB/c Nude mice. The concentration of the cell suspension was 5x10^6/0.1 mL.
0.1 mL (5×10^6 NUGC-3 cells) of cell suspension (PBS : Matrigel = 1:1, V/V) was seeded subcutaneously on the right back of each mouse. When the tumor grew to have an average volume of 128.4 mm^3, group-based drug administration began (vehicle: 0.2% HPC + 0.5% Tween 80), and the average tumor volume of the enrolled animals was 146.1 mm^3.
Table 11 Route, dose and regimen of administration in the subcutaneous xenograft model

We go through three molecules from patent EP4737449A1 (Changchun Genescience Pharmaceutical Co., Ltd., priority 2023, dated 2025).

The term IC50 denotes the concentration that gives 50% inhibition. Lower therefore signals higher potency. The Papp A→B is how fast a substance crosses the layer from the apical side. Low values mean poor permeation, high ones ready permeation. For orientation: Papp B→A means the apparent permeability from the basolateral to the apical side of a cell layer. Regarding `CNC(=O)c1ccc(NCC#Cc2cc3c(N[C@@H]4CCN(C)C[C@@H]4F)cccc3n2CC(F)(F)F)c(OC)c1` [Control compound, reference compound], 0.769 µM corresponded to half-maximal inhibition in the series on BXPC-3 cells (IC50). In series [1] (120 min), this molecule registered a Papp A→B at 120 min, 10 µM of 4.68 ×10⁻⁶ cm/s and a Papp B→A at 120 min, 10 µM of 19.4 ×10⁻⁶ cm/s. In addition, the efflux ratio at 120 min, 10 µM in series [1] came out at 4.16. Further, the “tumor volume inhibition rate TGI” value in series [2] (50 mpk, QD) was 52%. In series [2] (100 mpk, QD), the “tumor volume inhibition rate TGI” value stood at 77%.
Take `CN1CC[C@@H](Nc2cccc3c(CC(F)(F)F)c(C#CCNC(=O)c4cnn(C(C)(C)C)c4)nn23)[C@@H](F)C1` [Compound 001, 1-tert-butyl-N-[3-(7-{[(3S,4R)-3-fluoro-1-methylpiperidin-4-yl]amino}-3-(2,2,2-trifluoroethyl)pyrazolo[1,5-a]pyridin-2-yl)prop-2-yn-1-yl]-1H-pyrazole-4-carboxamide]: in series [1] (120 min), the Papp A→B at 120 min, 10 µM is 4.39 ×10⁻⁶ cm/s and the Papp B→A at 120 min, 10 µM amounted to 6.5 ×10⁻⁶ cm/s. Also, in series [1], the efflux ratio at 120 min, 10 µM worked out at 1.48.
Consider `CN1CC[C@@H](Nc2cccc3c(CC(F)(F)F)c(C#CCNC(=O)c4cnn(C(C)(C)C)c4N)nn23)[C@@H](F)C1` [Compound 047], for which the IC50 in the series on BXPC-3 cells stood at 0.18 µM. Also, in series [1], the efflux ratio at 120 min, 10 µM was 1.51. In addition, the Papp A→B at 2 h in series [1] (120 min) turned out to be 5.18 ×10⁻⁶ cm/s. In series [1] (120 min), this molecule showed a Papp B→A at 2 h of 7.8 ×10⁻⁶ cm/s. The “tumor volume inhibition rate TGI” value amounted to 68% in series [2] (50 mpk, BID); 93% in series [2] (100 mpk, BID); 103% in series [2] (150 mpk, BID); 91% in series [2] (150 mpk, QD).
